Data from patent US9145398B2, “Methods of treating CXCR4-expressing cancers” (University of Louisville Research Foundation, Inc., priority 2010, dated 2015).
“Also recorded” adds a separate entry of the source.

What was measured:
BLT1 [1] = target: T1, BLT1 (Homo sapiens, UniProt Q15722); test: Chemotaxis assay, cells expressing BLT1, LTB4; type: cell-based; details: 50 μM test compound, LTB4-induced
Description: (§1) Cells were suspended in chemotaxis buffer (RPMI 1640, 1% fetal bovine serum, 1 mM HEPES) at a concentration of 1×10^7 cells per ml. Cell chemotaxis was determined by examining the migration of the 300.19 cells in response to administration of 50 μM test compound plus an optimized concentration of CXCL12 using a chemotaxis assay that was previously described in Basu et al. (Basu et al., Critical role for polar residues in coupling leukotriene B4 binding to signal transduction in BLT1, J. Biol. Chem. (2007) Vol. 282, pp. 10005-17). 100 μL of 300.19 cells from the above cell suspension were placed in the upper chamber of a Transwell support (Corning Costar, Cambridge, Mass.) and were separated by a 5 micron filter from a bottom chamber containing 50 μM test compound plus the optimized concentration of CXCL12 in a final bottom chamber volume of 600 μl. After 3 h of incubation at 37° C. in 5% CO2, the upper chamber was removed and cells in the lower chamber were counted in a Bürker chamber. Cell counts for all samples were normalized to a CXCL12 plus DMSO control and results are reported using this normalized measure, referred to herein as the chemotaxis index. In some instances, the IC50 concentration (i.e., the concentration at which the chemotaxis index is reduced to 50% of the chemotaxis index of the CXCL12 plus DMSO control) of the test compounds was determined. All assays were performed a minimum of four times; error bars represent the standard deviation of the mean.
To examine specificity of some of the compounds for CXCR4, their activity was tested against a non-family member class A G protein-coupled receptor, BLT1. […] I-38 and I-43 inhibited BLT1-mediated chemotaxis (0.23) and (0.045) to about the same extent as CXCR4-mediated chemotaxis (0.21) and (0.064), respectively.

hCXCR4-GFP [2] = target: T2, hCXCR4-GFP (Homo sapiens, UniProt P61073); test: Chemotaxis assay, hCXCR4-GFP expressing 300.19 cells, CXCL12; type: cell-based; details: for chemotaxis index (CXCR4-mediated): 50 μM test compound plus optimized CXCL12, normalized to CXCL12 plus DMSO control
Description: as §1

A549 cells = test: MTT cell proliferation assay, A549; type: cell-based, human; details: 4 days; for IC50: Homo sapiens, A549, 96 h
Description: (§2) To determine the potential for compounds to impact the proliferation of cells, cell growth was assessed capacity using the 3-(4,5-dimethylthiazol-2-yl)-2,5-diphenyltetrazolium bromide (MTT) assay. The effect of these compounds was determined for four cell lines: HS27, a “normal” fibroblast cell line; MCF7, an estrogen-dependant non-metastatic breast cancer cell line; MDA-MB-231, an estrogen-independent metastatic breast cancer cell line; and A549, a lung cancer cell line. Cells were left untreated, treated with 12.5 mM DMSO, or treated with varying concentrations of four compounds, (I-9, I-25, I-36, and I-37), then incubated for 4 days, before analysis. Absorbance at 490 nm represents proliferating cells. For samples using compounds, these values are normalized to untreated samples.

MDA-MB-231 cells = test: MTT cell proliferation assay, MDA-MB-231; type: cell-based, human; details: 4 days; for IC50: Homo sapiens, MDA-MB-231, 96 h
Description: as §2

HS27 cells = test: MTT cell proliferation assay, HS27; type: cell-based, human; details: 4 days, normal fibroblast cell line
Description: as §2

MCF7 cells = test: MTT cell proliferation assay, MCF7; type: cell-based, human; details: 4 days
Description: as §2

hCXCR4-GFP [3] = target: T2, hCXCR4-GFP; test: Intracellular calcium mobilization assay, hCXCR4-GFP expressing 300.19 cells, CXCL12; type: cell-based; design: IC50 of intracellular calcium mobilization, CXCR4; other: CXCL12-mediated; other: 50 μM test compound; normalized Δ fluorescence (CXCR4, intracellular calcium mobilization); other: 50 μM test compound, 60 seconds pretreatm; details: for IC50: CXCL12-mediated, read-out: IC50 of intracellular calcium mobilization, CXCR4
Description: (§3) Intracellular Calcium Mobilization Assay Method: The intracellular calcium mobilization assay used 300.19 cells which stably expressed hCXCR4-GFP, as described previously in Pello et al. (2008). Cells were loaded with INDO-I and then pretreated with the 50 μM of the test compound for 60 seconds prior to stimulation of intracellular calcium mobilization with an optimized concentration of CXCL12. […] The value Δ florescence is the difference between (a) the fluorescence ratio from cells before exposure to CXCL12 at its optimized concentration and (b) the fluorescence ratio from cells following stimulation with the optimized concentration of CXCL12. Decreases in Δ florescence correspond to decreases in intracellular calcium mobilization, and therefore, decreased signaling. As CXCL12 concentration was optimized for each test compound, results are presented as normalized Δ florescence which is Δ fluorescence divided by the fluorescence ratio of optimized CXCL12-only stimulation. In some instances, the IC50 concentration (concentration at which intracellular calcium mobilization is reduced to 50% of the Δ fluorescence of the CXCL12 plus DMSO control) of the test compounds was determined. All assays were performed a minimum of four times; error bars represent the standard deviation of the mean.

TC-1 tumor cells = type: in vivo; details: 5 mg/kg i.p. every day for 21 days; versus PBS or Vehicle controls
From the text: Development of Animal Model for CXCR4 Dependent Cancer Metastasis in Lungs: To establish a CXCR4 dependent lung tumor metastasis model, we first screened several cancer cell lines that are known to metastasize to lungs in mice models to determine which cancer cell lines endogenously express CXCR4 receptor. The mice cell lines screened were Lewis lung carcinoma, B16F10 melanoma, and TC-1 cervical carcinoma. Mice cell lines were screened using flow cytometry-based surface receptor staining using a fluorochrome labeled antibody to mouse CXCR4 receptor. […] The TC-1 cell line was generated by transfection of murine lung squamous epithelial cells by Human pappillomavirus (HPV) oncogenes E6, E7, and activated Ras.
5 mg/kg body weight of AMD3100, I-28, I-36, or I-38 were also injected at the same dose intra-peritoneal (i.p.) every day for 21 days starting from the day before the tumor cell injection. Mice were sacrificed and lungs were perfused and collected on day 21 post tumor challenge. Lungs were stored in formalin for 16 hrs and then transferred into 70% ethanol until the lung lobes became lucid. All five lung lobes were separated. Tumors were counted using a magnifying glass or a microscope. Tumor sizes were measured using a digital caliper. The total number of tumors counted in all five lung lobes of an individual mouse is reported as the tumor incidence. Mean tumor sizes were added together to calculate cumulative tumor size, which is reported as the tumor burden for each mouse.

hCXCR4-GFP [4] = test: Intracellular calcium mobilization assay, hCXCR4-GFP expressing 300.19 cells, CXCL12; type: cell-based, human; details: 50 μM test compound
Description: as §3

BLT1 [5] = target: T1, BLT1; test: Intracellular calcium mobilization assay, cells expressing BLT1, LTB4; type: cell-based; details: LTB4-mediated
Description: as §3
At 50 μM test compound concentrations in BLT1-expressing cells, I-44 (0.040) and I-46 (0.017) inhibited intracellular calcium mobilization.

[6] = Test for toxicity in mice; type: in vivo; details: i.p. 5 mg/kg, then 20 or 40 mg/kg two days later; observed over 3 weeks
Description: Test for Toxicity: Mice were treated by intra-peritoneal injections of three of compounds I-28, I-36, and I-38 at the first dose of 5 mg/kg of body weight, followed by a second injection of either 20 mg/kg of body weight or 40 mg/kg of body weight two days later.

hCXCR4-GFP [7] = test: Chemotaxis assay, hCXCR4-GFP expressing 300.19 cells, CXCL12; type: cell-based, human
Description: as §1

300.19 cells = test: Cytotoxicity assay, propidium iodide based flow cytometry; type: cell-based; details: for cytotoxicity, percentage of cells staining positive for PI: 50 μM test compound; for cytotoxicity in dose response below 50 μM: 5 μM and 1 μM tested
Description: Cytotoxicity Assay Method: To determine the potential for test compound cytotoxicity to influence cell intracellular calcium mobilization and chemotaxis, cell cytotoxicity was assessed using propidium iodide (PI) based flow cytometry. Propidium iodine is impermeable to intact cell membranes and thus its lack of intercalation into DNA (which increases PI fluorescence) is a positive indicator of cell viability. Cytotoxicity values are presented as percentage of cells staining positive for PI. Lower values of fluorescence indicate less cytotoxicity. All assays were performed a minimum of four times; error bars represent the standard deviation of the mean.

T2 sequence (P61073 whole entry): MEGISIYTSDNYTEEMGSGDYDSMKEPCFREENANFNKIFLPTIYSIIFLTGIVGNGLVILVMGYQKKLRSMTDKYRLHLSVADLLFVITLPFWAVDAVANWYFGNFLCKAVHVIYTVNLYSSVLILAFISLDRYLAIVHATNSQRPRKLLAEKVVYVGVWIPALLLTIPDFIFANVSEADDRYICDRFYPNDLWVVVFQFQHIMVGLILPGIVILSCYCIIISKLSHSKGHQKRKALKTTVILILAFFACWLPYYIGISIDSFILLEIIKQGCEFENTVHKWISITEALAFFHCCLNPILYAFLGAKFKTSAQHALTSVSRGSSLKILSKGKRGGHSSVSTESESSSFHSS
T1 sequence (Q15722 whole entry, species assumed): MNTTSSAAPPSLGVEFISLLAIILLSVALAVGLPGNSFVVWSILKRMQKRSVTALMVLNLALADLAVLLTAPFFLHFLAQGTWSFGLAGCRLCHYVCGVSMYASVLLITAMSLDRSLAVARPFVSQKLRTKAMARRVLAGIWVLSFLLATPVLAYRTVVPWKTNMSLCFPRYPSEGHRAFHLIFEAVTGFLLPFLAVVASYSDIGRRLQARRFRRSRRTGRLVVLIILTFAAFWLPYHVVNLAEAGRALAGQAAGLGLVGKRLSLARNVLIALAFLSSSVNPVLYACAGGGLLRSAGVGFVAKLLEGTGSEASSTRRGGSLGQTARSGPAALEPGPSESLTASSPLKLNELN

CN1C/C(=C/c2cccnc2)C(=O)/C(=C/c2cccnc2)C1 [Compound I-43, (3E,5Z)-1-methyl-3,5-bis((pyridin-3-yl)methylene)piperidin-4-one]
chemotaxis index (BLT1-mediated) (BLT1 [1]): 0.045 | chemotaxis index (CXCR4-mediated) (hCXCR4-GFP [2]): 0.064 | IC50 (hCXCR4-GFP [2]; hCXCR4-GFP 300.19 cells, CXCL12): 20 µM

Cc1ccc(NCC(=O)Nc2ncc(Cc3cccc(C(F)(F)F)c3)s2)cc1C [Compound I-37, 2-(3,4-dimethylphenyl)amino-N-[5-[[3-(trifluoromethyl)phenyl]methyl]thiazol-2-yl]-acetamide]
proliferation inhibition, A549 (in words) (A549 cells): did not inhibit proliferation for any tested cell line | proliferation inhibition, MDA-MB-231 (in words) (MDA-MB-231 cells): did not inhibit proliferation for any tested cell line | proliferation inhibition, HS27 (in words) (HS27 cells): did not inhibit proliferation for any tested cell line | proliferation inhibition, MCF7 (in words) (MCF7 cells): did not inhibit proliferation for any tested cell line

c1cc(CN2CCCNCCNCCCNCC2)ccc1CN1CCCNCCNCCCNCC1 [AMD3100, reference compound]
normalized Δ fluorescence (CXCR4, intracellular calcium mobilization) (hCXCR4-GFP [3]; 50 μM test compound, 60 seconds pretreatment, optimized CXCL12 (AMD3100 concentration not given)): 0.51 | inhibition of chemotaxis (hCXCR4-GFP [2]; concentrations ranging from 50 nM to 100 nM, data not shown): completely inhibited | TC-1 metastatic tumor incidence and burden in lungs (TC-1 tumor cells): reduced mice TC-1 metastatic tumor incidence and burden in lungs; also recorded: metastasis of TC-1 was significantly inhibited

Cc1ccc(N2C(=O)/C(=C/Nc3ccc(S(=O)(=O)Nc4ccc(O)cc4)cc3)c3ccccc3C2=O)cc1C [Compound I-28, 4-[[2-(3,4-dimethylphenyl)-1,3-dioxo-4-isoquinolylidene]methylamino]-N-(4-hydroxyphenyl)-benzenesulfonamide]
difference between CXCR4- and BLT1-mediated intracellular calcium mobilization (hCXCR4-GFP [4]): no significant difference | IC50 (BLT1 [5]): 22.5 µM | IC50 (hCXCR4-GFP [3]): 10 µM | TC-1 metastatic tumor incidence and burden in lungs (TC-1 tumor cells): reduced mice TC-1 metastatic tumor incidence and burden in lungs | apparent toxicity (loss of body weight, signs of physiological distress) [6]: did not induce any apparent toxicity

CCc1ccc(OCCNc2cc(N3CCNC(C)C3)ccc2[N+](=O)[O-])cc1 (stereo not shown) [Compound I-4, N-[2-(4-ethylphenoxy)ethyl]-5-(3-methylpiperazin-1-yl)-2-nitro-aniline]
difference between CXCR4- and BLT1-mediated intracellular calcium mobilization (hCXCR4-GFP [4]): no significant difference | IC50 (BLT1 [5]): 40 µM | IC50 (hCXCR4-GFP [3]): 45 µM | difference between CXCR4- and BLT1-mediated chemotaxis (hCXCR4-GFP [7]; 50 μM test compound): small differences | cytotoxicity at 5 μM (300.19 cells; 5 μM): maintained cytotoxicity | cytotoxicity, percentage of cells staining positive for PI (300.19 cells): 98.8%

COc1cc(NCCCC(C)Nc2ccnc3cc4ccccc4cc23)c2ncccc2c1 (stereo not shown) [Compound I-9, N-(5-(6-methoxyquinolin-8-ylamino)pentan-2-yl)benzo[g]quinolin-4-amine]
IC50 (A549 cells): 7.5 µM | difference between CXCR4- and BLT1-mediated intracellular calcium mobilization (hCXCR4-GFP [4]): no significant difference | IC50 (MDA-MB-231 cells): 5 µM | IC50 (BLT1 [5]): 20 µM | IC50 (hCXCR4-GFP [3]): 1 µM | cytotoxicity, percentage of cells staining positive for PI (300.19 cells): 81.2% | cytotoxicity in dose response below 50 μM (300.19 cells; 10 μM): no cytotoxicity beyond the initial 50 μM screening concentration | proliferation inhibition, HS27 (in words) (HS27 cells): consistently inhibited cell proliferation even at concentrations nearing 1 μM | IC50 (MCF7 cells; Homo sapiens, MCF7, 96 h): 5 µM

CN(C)c1cccc(Nc2nc3ccccc3nc2NS(=O)(=O)c2ccc([N+](=O)[O-])cc2)c1 [Compound I-25, N-[3-(3-dimethylaminophenyl)aminoquinoxalin-2-yl]-4-nitro-benzenesulfonamide]
IC50 (A549 cells): 10 µM | IC50 (MDA-MB-231 cells): 10 µM | IC50 (BLT1 [5]): 40 µM | chemotaxis index (BLT1-mediated) (BLT1 [1]): 0.38 | IC50 (hCXCR4-GFP [3]): 1 µM | fold greater inhibition of CXCR4-mediated than BLT1-mediated chemotaxis (hCXCR4-GFP [7]; from chemotaxis indices at 50 μM): 12 fold | chemotaxis index (CXCR4-mediated) (hCXCR4-GFP [2]): 0.030 | cytotoxicity, percentage of cells staining positive for PI (300.19 cells): 23.4% | cytotoxicity in dose response below 50 μM (300.19 cells; 10 μM): no cytotoxicity beyond the initial 50 μM screening concentration | proliferation inhibition, HS27 (in words) (HS27 cells): marginal proliferation inhibition at higher concentrations | proliferation inhibition, MCF7 (in words) (MCF7 cells): only marginally inhibited cell proliferation of MCF7 cells at high concentrations

C(=C\N1CCCC1)/c1nnnn1-c1ccc2ccccc2c1 [Compound I-2, 1-(2-naphthyl)-5-(2-pyrrolidin-1-ylvinyl)tetrazole]
difference between CXCR4- and BLT1-mediated intracellular calcium mobilization (hCXCR4-GFP [4]): no significant difference | IC50 (BLT1 [5]): 40 µM | IC50 (hCXCR4-GFP [3]): 45 µM | cytotoxicity at 10 μM (300.19 cells; 10 μM): retained cytotoxicity | cytotoxicity, percentage of cells staining positive for PI (300.19 cells): 63.5%
